Tests used:
HCT 116 tumor = experiment: In vivo HCT 116 tumor xenograft in nude mice; design: species or system nude (BalbC nu/nu) mice; conditions: all doses tested, i.p.
Description: In vivo mouse studies: HCT 116 cells (4×10^6) were injected into the flanks of nude (BalbC nu/nu) mice for both experiments. The animals were randomized when the tumors were staged at 50 mm^3. In the first experiment, control animals were administered 0.1 ml of vehicle (α-MEM containing 0.05% methylcarboxycellulose and 2% DMSO) i.p., in the absence of peptide (PBS, control #1) or presence of T1BP2-T (control #2, 150 μg in 0.1 ml PBS) or T1BP3-T (control #3, 150 μg in 0.1 ml PBS) injected s.c. at site of tumor. […] Animals treated with 9AC were divided into 4 groups, each containing 5 mice. T1BP-T and PBS subcutaneous injections were administered as described above at the site of the tumor, 30 minutes after the i.p. injection of 9AC in a 50 μl volume. 9AC was dissolved in vehicle. Groups consisted of animals treated with a total of 4 mg/kg 9AC (low dose) in the absence or presence of T1BP2-T or a total of 8 mg/kg 9AC (high dose). Animals were treated with 1 or 2 mg/kg doses, twice a week over 2 weeks. In the second experiment, 18 mice were evaluated in three groups of six animals. Control animals were injected i.p. with 0.1 ml of vehicle (α-MEM containing 0.05% methylcarboxycellulose and 2% DMSO). […]

top 1-DNA binding = biological target: T1, top 1-DNA binding (Homo sapiens, UniProt P11387); experiment: Biosensor analysis of the effect of peptide on top 1-DNA binding; conditions: 50 nM CPP4; top 1 5, 10 and 20 nM; biotinylated linear DNA
T1 construct: made in house; host or cells: Sf9 insect cells (baculovirus) or human placenta
T1 sequence (P11387 1-765): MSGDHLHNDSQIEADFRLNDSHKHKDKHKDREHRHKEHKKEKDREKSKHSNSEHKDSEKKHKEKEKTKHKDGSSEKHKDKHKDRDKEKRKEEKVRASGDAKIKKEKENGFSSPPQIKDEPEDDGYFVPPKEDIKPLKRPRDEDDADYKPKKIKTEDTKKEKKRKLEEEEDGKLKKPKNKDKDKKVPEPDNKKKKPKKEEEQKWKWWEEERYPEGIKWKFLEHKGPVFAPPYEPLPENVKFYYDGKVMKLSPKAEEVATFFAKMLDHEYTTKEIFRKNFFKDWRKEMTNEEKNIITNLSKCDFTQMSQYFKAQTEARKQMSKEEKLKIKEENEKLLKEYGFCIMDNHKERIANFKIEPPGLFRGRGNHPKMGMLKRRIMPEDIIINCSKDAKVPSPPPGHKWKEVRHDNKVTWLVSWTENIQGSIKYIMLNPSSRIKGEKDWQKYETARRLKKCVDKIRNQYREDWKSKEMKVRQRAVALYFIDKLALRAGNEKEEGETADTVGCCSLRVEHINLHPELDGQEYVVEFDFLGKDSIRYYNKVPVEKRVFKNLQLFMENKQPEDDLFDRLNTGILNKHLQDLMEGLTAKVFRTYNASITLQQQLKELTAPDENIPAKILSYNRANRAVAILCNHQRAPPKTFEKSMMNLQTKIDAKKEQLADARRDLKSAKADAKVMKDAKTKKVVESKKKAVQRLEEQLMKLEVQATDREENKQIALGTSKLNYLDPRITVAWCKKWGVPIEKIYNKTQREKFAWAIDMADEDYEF
Description: Biotinylated linear DNA was attached to the flow cell via straptavidin. Top 1 (5, 10 and 20 nM) was applied.

| top 1 dissociation from DNA (top 1-DNA binding) | Compound | anti-tumor effect of 9AC alone (HCT 116 tumor) |
| --- | --- | --- |
|  | CC[C@@]1(O)C(=O)OCc2c1cc1n(c2=O)Cc2cc3c(N)cccc3nc2-1 [9AC, 9-amino camptothecin] | significant anti-tumor effects |
| dissociation is slowed | DRVPLVHVIFNSFGY [CPP4] |  |
